We go through 20 compounds from PubChem BioAssay AID256 (DTP/NCI, 2004).

The assay relates to CD2F1 mice, L1210 leukemia ip, survival T/C. The assay can be described thus: NCI In Vivo Anticancer Drug Screen. Data for tumor model L1210 Leukemia (intraperitoneal) in CD2F1 (CDF1) mice. The note with it: higher = longer survival. In outline: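 Each value reflects a quotient of treated over vehicle control outcomes in mice with a transplanted tumor.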
Setting [1] is: endpoint: mean survival time, dose: 37.5 mg/kg/injection, schedule: Q01DX009 (ip), vehicle: saline.
[2] abbreviates: endpoint: mean survival time, dose: 75.0 mg/kg/injection, schedule: Q01DX001 (ip), vehicle: saline.
[3] abbreviates: endpoint: mean survival time, dose: 75.0 mg/kg/injection, schedule: Q01DX009 (ip), vehicle: saline.
Setting [4] is: endpoint: mean survival time, dose: 150.0 mg/kg/injection, schedule: Q01DX001 (ip), vehicle: saline.
Where [5] appears, read: endpoint: mean survival time, dose: 300.0 mg/kg/injection, schedule: Q01DX001 (ip), vehicle: saline.
Where [6] appears, read: endpoint: mean survival time, dose: 25.0 mg/kg/injection, schedule: Q01DX009 (ip), vehicle: saline with Tween-80.
Where [7] appears, read: endpoint: mean survival time, dose: 50.0 mg/kg/injection, schedule: Q01DX009 (ip), vehicle: saline with Tween-80.
[8] abbreviates: endpoint: mean survival time, dose: 100.0 mg/kg/injection, schedule: Q01DX001 (ip), vehicle: saline.
Where [9] appears, read: endpoint: mean survival time, dose: 100.0 mg/kg/injection, schedule: Q04DX003 (ip), vehicle: saline with Tween-80.
Where [10] appears, read: endpoint: mean survival time, dose: 200.0 mg/kg/injection, schedule: Q04DX003 (ip), vehicle: saline with Tween-80.
[11] abbreviates: endpoint: mean survival time, dose: 100.0 mg/kg/injection, schedule: Q01DX009 (ip), vehicle: Klucel (hydroxypropylcellulose) (HPC).
The mark [12] stands for this setting: endpoint: mean survival time, dose: 200.0 mg/kg/injection, schedule: Q01DX009 (ip), vehicle: Klucel (hydroxypropylcellulose) (HPC).
[13] abbreviates: endpoint: mean survival time, dose: 400.0 mg/kg/injection, schedule: Q01DX009 (ip), vehicle: Klucel (hydroxypropylcellulose) (HPC).

Values joined by “and” are separate entries in the source; they are usually repeats but may differ in a detail not shown here. Identical values can stand only once. Inconclusive results and toxic doses are left out.

With `CC(CN=[N+]=[N-])OC(=O)C(F)(F)F` (centres undefined), the T/C under setting [1] was 94 % of control, the T/C under setting [2] is 98 % of control, the T/C under setting [3] was 94 % of control and the T/C under setting [4] was 101 % of control.
For `CCC(COC(=O)c1ccc([N+](=O)[O-])cc1)NC1CCCCC1` (centres undefined), the T/C reads like this: under setting [2], 102 % of control; under setting [4], 103 % of control; under setting [5], 101 % of control.
For the compound `COc1ccc(OC)c(Cc2cnc3nc(N)nc(N)c3c2C)c1`, the T/C (endpoint: median survival time, dose: 2.5 mg/kg/injection, schedule: Q01DX009 (ip), vehicle: dextrose) is 103 % of control; the T/C (endpoint: median survival time, dose: 5.0 mg/kg/injection, schedule: Q01DX009 (ip), vehicle: dextrose) is 101 % of control and 102 % of control; the T/C (endpoint: median survival time, dose: 6.25 mg/kg/injection, schedule: Q01DX009 (ip), vehicle: water) was 95 % of control; the T/C (endpoint: median survival time, dose: 10.0 mg/kg/injection, schedule: Q01DX009 (ip), vehicle: dextrose) is 101 % of control and 102 % of control; the T/C (endpoint: median survival time, dose: 12.5 mg/kg/injection, schedule: Q01DX009 (ip), vehicle: water) was 98 % of control; the T/C (endpoint: median survival time, dose: 20.0 mg/kg/injection, schedule: Q01DX009 (ip), vehicle: dextrose) was 106 % of control and 112 % of control. Moreover, the T/C was 111 % of control (endpoint: median survival time, dose: 25.0 mg/kg/injection, schedule: Q01DX009 (ip), vehicle: water); 151 % of control (endpoint: median survival time, dose: 50.0 mg/kg/injection, schedule: Q01DX009 (ip), vehicle: water); 103 % of control (endpoint: median survival time, dose: 80.0 mg/kg/injection, schedule: Q01DX009 (ip), vehicle: dextrose); 88 % of control (endpoint: median survival time, dose: 100.0 mg/kg/injection, schedule: Q01DX009 (ip), vehicle: water).
Take `CCCCCCCCCCCCN(C)C`: the T/C under setting [6] is 92 % of control; the T/C (endpoint: mean survival time, dose: 25.0 mg/kg/injection, schedule: Q04DX003 (ip), vehicle: saline with Tween-80) was 97 % of control; the T/C (endpoint: mean survival time, dose: 50.0 mg/kg/injection, schedule: Q01DX001 (ip), vehicle: saline) was 96 % of control; the T/C under setting [7] is 92 % of control; the T/C (endpoint: mean survival time, dose: 50.0 mg/kg/injection, schedule: Q04DX003 (ip), vehicle: saline with Tween-80) was 100 % of control; the T/C under setting [8] is 100 % of control. Besides, the T/C under setting [9] was 102 % of control.
In the case of `Nc1cc(C(F)(F)F)ccc1[N+](=O)[O-]`, the T/C by setting is: under setting [9], 100 % of control; under setting [10], 100 % of control; (endpoint: mean survival time, dose: 400.0 mg/kg/injection, schedule: Q04DX003 (ip), vehicle: saline with Tween-80) 104 % of control.
Take `CSc1ccc(OC(=O)Nc2ccccc2F)cc1`: the T/C was 101 % of control under setting [9] and 112 % of control under setting [10].
For the compound `O=C1/C(=C/c2ccccc2[N+](=O)[O-])CCc2ccccc21`, the T/C under setting [11] was 97 % of control, the T/C under setting [12] was 91 % of control and the T/C under setting [13] is 96 % of control.
On to `CCCCCCC[CH2][Sn][CH2]CCCCCCC.Nc1ncnc2c1ncn2C1OC(CO)C2[OH+][OH+]C21` (centres undefined), for which the T/C was 98 % of control (endpoint: mean survival time, dose: 12.5 mg/kg/injection, schedule: Q01DX005 (ip), vehicle: other) and 110 % of control (endpoint: mean survival time, dose: 25.0 mg/kg/injection, schedule: Q01DX005 (ip), vehicle: other).
Turning to `O=C1C(Cc2ccccc2)CCCC1Cc1ccccc1` (centres undefined), the T/C was 100 % of control (endpoint: mean survival time, dose: 100.0 mg/kg/injection, schedule: Q01DX001 (ip), vehicle: saline with Tween-80); 98 % of control (endpoint: mean survival time, dose: 200.0 mg/kg/injection, schedule: Q01DX001 (ip), vehicle: saline with Tween-80); 102 % of control (endpoint: mean survival time, dose: 400.0 mg/kg/injection, schedule: Q01DX001 (ip), vehicle: saline with Tween-80).
As for `CC1c2ccccc2CC2(C)CN12` (centres undefined), the T/C was 103 % of control under setting [2], 101 % of control under setting [4] and 97 % of control under setting [5].
Regarding `O=C(N/N=C/c1ccccc1)c1ccccc1O`, the T/C reads like this: under setting [11], 96 % of control; (endpoint: mean survival time, dose: 100.0 mg/kg/injection, schedule: Q04DX003 (ip), vehicle: Klucel (hydroxypropylcellulose) (HPC)) 100 % of control; under setting [12], 97 % of control; (endpoint: mean survival time, dose: 200.0 mg/kg/injection, schedule: Q04DX003 (ip), vehicle: Klucel (hydroxypropylcellulose) (HPC)) 94 % of control; under setting [13], 94 % of control; (endpoint: mean survival time, dose: 400.0 mg/kg/injection, schedule: Q04DX003 (ip), vehicle: Klucel (hydroxypropylcellulose) (HPC)) 94 % of control.
In the case of `CS(=O)(=O)OCC(=O)NCCCCNC(=O)COS(C)(=O)=O`, the T/C is, setting by setting: under setting [8], 101 % of control; (endpoint: mean survival time, dose: 200.0 mg/kg/injection, schedule: Q01DX001 (ip), vehicle: saline) 101 % of control.
Turning to `CCSC1=NCCCS1`, the T/C is 97 % of control (endpoint: mean survival time, dose: 75.0 mg/kg/injection, schedule: Q01DX001 (ip), vehicle: other); 98 % of control (endpoint: mean survival time, dose: 150.0 mg/kg/injection, schedule: Q01DX001 (ip), vehicle: other); 95 % of control (endpoint: mean survival time, dose: 300.0 mg/kg/injection, schedule: Q01DX001 (ip), vehicle: other).
For `Cc1cn(C2CC(OP(=O)(O)OCC3OC(n4ccc(N)nc4=O)C(O)C3O)C(CO)O2)c(=O)[nH]c1=O` (centres undefined), the T/C by setting is: (endpoint: median survival time, dose: 5.0 mg/kg/injection, schedule: Q01DX005 (ip), vehicle: saline) 107 % of control; (endpoint: median survival time, dose: 10.0 mg/kg/injection, schedule: Q01DX005 (ip), vehicle: saline) 117 % of control; (endpoint: median survival time, dose: 25.0 mg/kg/injection, schedule: Q01DX005 (ip), vehicle: saline) 122 % of control.
Turning to `Cc1cccc(N)n1`, the T/C is 94 % of control (endpoint: mean survival time, dose: 3.13 mg/kg/injection, schedule: Q04DX002 (ip), vehicle: saline); 90 % of control (endpoint: mean survival time, dose: 6.25 mg/kg/injection, schedule: Q04DX002 (ip), vehicle: saline); 90 % of control (endpoint: mean survival time, dose: 12.5 mg/kg/injection, schedule: Q04DX002 (ip), vehicle: saline).
For `CC(C)NC(=O)/C=C/C(=O)O`, the T/C (endpoint: mean survival time, dose: 100.0 mg/kg/injection, schedule: Q04DX003 (ip), vehicle: saline) was 100 % of control; the T/C (endpoint: mean survival time, dose: 200.0 mg/kg/injection, schedule: Q04DX003 (ip), vehicle: saline) was 100 % of control; the T/C (endpoint: mean survival time, dose: 400.0 mg/kg/injection, schedule: Q04DX003 (ip), vehicle: saline) is 100 % of control.
For `C=C1C(=O)O[C@@H]2[C@H](O)[C@@H](C)[C@@H]3C=CC(=O)[C@@]3(C)[C@H](OC(=O)C=C(C)C)[C@H]12`, the T/C by setting is: (endpoint: mean survival time, dose: 1.25 mg/kg/injection, schedule: Q01DX009 (ip), vehicle: saline with Tween-80) 100 % of control; (endpoint: mean survival time, dose: 2.5 mg/kg/injection, schedule: Q01DX009 (ip), vehicle: saline with Tween-80) 102 % of control; (endpoint: mean survival time, dose: 5.0 mg/kg/injection, schedule: Q01DX009 (ip), vehicle: saline with Tween-80) 108 % of control; (endpoint: mean survival time, dose: 10.0 mg/kg/injection, schedule: Q01DX009 (ip), vehicle: saline with Tween-80) 106 % of control; (endpoint: mean survival time, dose: 20.0 mg/kg/injection, schedule: Q01DX009 (ip), vehicle: saline with Tween-80) 89 % of control.
As for `CC(O)C(NC(=O)OC(C)(C)C)C(=O)ON1C(=O)CCC1=O` (centres undefined), the T/C runs as follows: under setting [6], 92 % of control; under setting [7], 94 % of control; (endpoint: mean survival time, dose: 100.0 mg/kg/injection, schedule: Q01DX009 (ip), vehicle: saline with Tween-80) 96 % of control and 98 % of control.
For `CC(=O)C(C#N)c1c(C)cc(C)cc1C` (centres undefined), the T/C was 96 % of control under setting [1]; 98 % of control under setting [3]; 96 % of control (endpoint: mean survival time, dose: 150.0 mg/kg/injection, schedule: Q01DX009 (ip), vehicle: saline).
As to `CCOC(=O)c1c2c3c(c(Br)ccc3n(C)c1=O)C(=O)c1ccccc1-2`, the T/C reads like this: (endpoint: mean survival time, dose: 12.5 mg/kg/injection, schedule: Q01DX009 (ip), vehicle: saline with Tween-80) 98 % of control; under setting [6], 96 % of control; under setting [7], 98 % of control.
